In patent US8895610B1, “Platinum (IV) compounds targeting zinc finger domains” (priority 2007, dated 2014):
Where “and” joins values, the source holds several entries; their conditions need not be identical. Equal values may be shown once. Entries after “also recorded” stand apart in the source; their conditions may differ.

How the values were obtained:
[1] = test system: Calcitonin; assay: Feline blood serum immunofluorescent bead analysis: Calcitonin; type: in vivo, cat; details: cats BR, CF
Experimental: (§1) Test sera samples from select felines were analyzed using the Rules-Based Medicine (Austin, Tex.) human multi-analyte for 90 measures from a single sample of less than 0.5 mL. The assay uses immunofluorescent beads to simultaneously measure antibody recognition to individually identifiable colored beads, each conjugated with a specific antibody, within a single well plate. Blood samples were drawn preceding (pretreatment) and following (post treatment) one-month FX101 treatment (from felines in Example 6), and are compared with two uninfected control felines. Human cross-reactive antibodies are commonly used for felines, and are relative rather than quantitative measures. Reductions in TNF-alpha and MMP-2 are evident in treated cats; TIMP-1 (Tissue Inhibitor of Metalloproteinases) is not associated with the downregulation of MMP-2. Both MMP-2 and MMP-9, as well as MCP-1, are considered important contributors to the penetration of virally-infected cells across the BBB (Webster, 2006). Additional comments follow the table.

[2] = Clinical observations, clinical chemistry, CBC and urinalysis in FIV cat studies; type: in vivo; details: 9 intravenous doses of 3 mg/kg over 4.5 weeks; two FIV-infected cats
Source text: Currently available antiretrovirals require daily dosing, often in combination therapy. Two 12^+-year old specific-pathogen-free domestic female cats infected >5 years with the Petaluma strain of FIV were used in this study. The animals were housed individually in a climatized animal facility in accordance with standards, had ad libitum access to fresh water and food, and were sedated with Tiletamine/Zolazepam intramuscularly prior to any procedure. The cats weighed from 3-5 kg each. Three weeks before initiation of the treatment and at scheduled times, samples were collected for hematological and virological analyses. The cats received 9 intravenous doses of 3 mg/kg FX101 over 4.5 weeks (2× weekly).

[3] = test system: IL-13; assay: Feline blood serum immunofluorescent bead analysis: IL-13; type: in vivo, cat; details: cats BR, CF
Experimental: as §1

[4] = test system: peripheral CD4+ and CD8+ T-lymphocytes; assay: Circulating CD4+ and CD8+ T-lymphocytes by flow cytometry; type: in vivo, domestic cat
Experimental: Numbers of peripheral CD4^+ and CD8^+ T-lymphocytes in the blood were determined by labeling with mouse monoclonal antibodies to feline CD4^+ (FE1.7B12) and feline CD8^+ (FE1.10E9), obtained from Peter F. Moore, University of California, Davis, Calif. Bound primary antibodies were detected using FITC-conjugated anti-mouse IgG1 (Space-Serotec, Milan, Italy), and the samples were analyzed on a FACScan flow cytometer (Becton Dickinson, San Jose, Calif.). Both a negative (no drug) and positive (integrase inhibitor cocktail) control are included with data from two HK inhibitor-tested felines.

[5] = test system: virions from HIV-1-transfected HeLa cells (pNL4-3); assay: Electron micrographs of virions from HIV-1 transfected HeLa cells; type: cell-based, human; details: 10 and 20 uM; vs untreated control cells
Experimental: Virions collected from HeLa cells 24 hours post-transfected with pNL4-3 HIV-1 were treated with or without FX101 for 2 hours, washed with phosphate-buffered saline, pelleted by ultracentrifugation, fixed with buffer containing 2% glutaraldehyde and 0.1M sodium cacodylate as described (Freed, 1994), and analyzed by electron microscopy. These images reveal comparative distortions of both viral core and corresponding membranes of viral progeny, consistent with published images of immature virion particles having a thick electron-dense outer shell and an electron-lucent center lacking a typical cone-shaped core, produced by nucleocapsid mutant virions (Tanchou, 1998). Mutational deletion of either or both zinc finger domains of the nucleocapsid protein also produces morphologically altered virions, reduces virion release and alters RNA packaging (Houzet, 2008). The failure of nucleocapsid protein proteins to chaperone viral RNA together with the failure to form the nucleocapsid membrane reflects two roles of nucleocapsid proteins involving zinc finger domains. Obstruction of virion assembly may create impotent virions while maintaining antigens for host humoral immune response as virus-like particles. […]

[6] = test system: HIV-1-transfected HeLa host cells (pNL4-3); assay: Virus release in HIV-transfected HeLa cells (radiolabel, immunoprecipitation); type: cell-based, human; details: vs untreated transfected HeLa cells
Source text: Briefly, HeLa cells were transfected (calcium phosphate method) with the full-length, infectious HIV-1 molecular clone pNL4-3 to examine single-cycle particle production (Freed, 1994). Transfected cells were metabolically radiolabeled, and cell- and virus-associated proteins were immunoprecipitated and quantified as previously described (Waheed and Freed, 2008). Virus release efficiency was reduced in a concentration-dependent manner with FX101 as compared with untreated controls.

[7] = Blood brain barrier penetration: CSF platinum by graphite furnace atomic absorption; type: in vivo, cat; details: final i.v. treatment, both cats
Experimental: Cerebrospinal fluid (CSF) from cats BR and CF of Example 6 were collected under sedation following humane animal practices. CSF (0.5-1 ml) samples were collected within 15 minutes of FX101 peripheral intravenous (IV) injection to examine for drug penetration into the CNS. Importantly, this analysis was conducted upon the final IV drug treatment, which would most likely evidence resistances to CNS uptake as experienced by other CNS-penetrable drugs. Instead, CSF concentrations (analyzed by graphite furnace atomic absorption spectrometry for this inorganic complex as illustrated for cat “BG”) were equivalent to blood serum concentrations of 5 micrograms/mL in both cats, supporting a continuing unimpeded penetration into the vital CNS compartment through the blood brain barrier.

[8] = molecular target: T1, synthetic peptide F2, the carboxy-terminal zinc finger domain of HIV-1 (Human immunodeficiency virus type 1 group M subtype B, UniProt P12493); details: 100 pmole/microliter solutions, equal volumes; isotopic distribution of platinum at m/z~631
Experimental: FIGS. 1A and 1B show Time of Flight (TOF) mass spectroscopy (MS) fragmentation pattern of the synthetic peptide F2, the carboxy-terminal zinc finger domain of HIV-1, bound to platinum. […] Equal volumes of F2 with FX101, F2 with ZnCO3, F2 with both FX101 and ZnCO3 were mixed, resulting in four total peptide solutions. Full TOF MS was acquired on the QSTAR at the Johns Hopkins Proteomics Core Facility with 1 uL of original sample diluted 1:10 in 50% methanol with 0.1% formic acid/water and 3 uL of this mixture loaded onto the 2 um New Objective tip and nano-sprayed using ion spray voltage of 1200 eV; mass calibration of Csl mixture was performed prior to sample injection. Mass range 590 kDa (50%) to 10500 kDa (50%) was collected for 1.0 minute.

[9] = test system: transfected HeLa and HEK-293 cells; assay: Viral transcription or infectivity in transfected HeLa and HEK-293 cells; type: cell-based
[10] = molecular target: T1, synthetic peptide F2, the carboxy-terminal zinc finger domain of HIV-1; details: 1:1 metal:F2, 10^−4 mole/liter in PBS
Experimental: The synthetic peptide F2, the carboxy-terminal zinc finger domain of HIV-1, was examined by ultraviolet-visible absorption spectroscopy for its interaction with various metals. […] Stock solutions of 2×10^−4 mole/liter F2 peptide were prepared in phosphate buffered saline (PBS) without calcium or magnesium; known stock concentrations of Fe(II), Co(II), Zn(II) and Pt(IV) metals were also prepared in PBS. One to one ratios of F2 peptide with each metal were individually combined at room temperature with final concentrations of 10^−4 mole/liter, and spectra were collected at various times using a Nanodrop Spectrophotometer (Thermo Scientific, Inc.) having a xenon flash lamp and requiring <2 microliters of sample deposited directly onto an optical lense.

[11] = post treatment (one-month FX101 treatment)

With [NH2][Pt]([NH2])([Cl])([Cl])([Cl])[N+](=O)[O-] [FX101, nitrotrichlorodiamminoPt(IV)] the “Calcitonin, relative blood serum measure” value [1, 11] was 2.9 pg/mL, the “Calcitonin, relative blood serum measure” value ([1]; pretreatment) was 7.6 pg/mL and 11 pg/mL and the “local reactions or adverse clinical indicators” value [2] was “No local reactions or adverse clinical indicators”. For the same compound, the “IL-13, relative blood serum measure” value [3, 11] was 27 pg/mL and 34 pg/mL, the “IL-13, relative blood serum measure” value ([3]; pretreatment) was 15 pg/mL and 12 pg/mL and the “Relative CD4+/CD8+ T-Lymphocyte Counts” value ([4]; Aug. 2, 2007 pretreatment period) was 1.1 and 1.3. The “Relative CD4+/CD8+ T-Lymphocyte Counts” value ([4]; Aug. 23, 2007 start of treatment period) was 1.2, the “Relative CD4+/CD8+ T-Lymphocyte Counts” value ([4]; Aug. 30, 2007 treatment period) was 1.5 and 1.3 and the “Relative CD4+/CD8+ T-Lymphocyte Counts” value ([4]; Dec. 1, 2005 pretreatment period) was 1.5 and 2.0. The “Relative CD4+/CD8+ T-Lymphocyte Counts” value ([4]; Feb. 1, 2006 pretreatment period) was 0.82 and 1.1, the “Relative CD4+/CD8+ T-Lymphocyte Counts” value ([4]; Jan. 1, 2006 pretreatment period) was 1.6 and 0.92 and the “Relative CD4+/CD8+ T-Lymphocyte Counts” value ([4]; Mar. 1, 2006 pretreatment period) was 0.84 and 1.2. For the same compound, the “Relative CD4+/CD8+ T-Lymphocyte Counts” value ([4]; May 8, 2008 (+33 wk) post treatment) was 1.8 and 1.6, the “Relative CD4+/CD8+ T-Lymphocyte Counts” value ([4]; Nov. 1, 2005 pretreatment period) was 0.86 and 0.85 and the “Relative CD4+/CD8+ T-Lymphocyte Counts” value ([4]; Oct. 4, 2007 (+2 wk) post treatment) was 1.9 and 1.4. The “Relative CD4+/CD8+ T-Lymphocyte Counts” value ([4]; Sep. 4, 2007 treatment period) was 1.5 and 1.6, the “final CD4+/CD8+ ratios compared with controls” value ([4]; conclusion of the study, both tested felines) was “remained higher” and the “virion morphology (phenotype of virions produced)” value [5] was “immature virions; also recorded: nucleotide-defective and nucleotide-deficient virion particles with morphologically altered phenotypes”. The “p24 Gag proteins” value [6] was “greatly reduced”, the “HIV-1 virus release efficiency” value ([6]; concentration-dependent) was “greatly reduced” and the blood serum concentrations [7] was 5 micrograms/mL. The CSF concentrations ([7]; within 15 minutes of peripheral i.v. injection) was 5 micrograms/mL, the “direct binding of platinum to F2 peptide by TOF MS” value [8] was “Pt-bound peptide” and the “direct inhibition of viral transcription or infectivity” value [9] was “did not act as a direct inhibitor of viral transcription or infectivity”. For the same compound, the “comparative absorption at 250 nm of metal with F2 peptide” value [10] was 0.118.
